In the supplement of paper PMC10307832:

Tests used:
Assay in all cases: relative viability (nuclei count vs DMSO), 5 days (fraction); higher = more cells survive
Everolimus + Dasatinib = compound: CO[C@H]1C[C@@H]2CC[C@@H](C)[C@@](O)(O2)C(=O)C(=O)N2CCCC[C@H]2C(=O)O[C@H]([C@H](C)C[C@@H]2CC[C@@H](OCCO)[C@H](OC)C2)CC(=O)[C@H](C)/C=C(\C)[C@@H](O)[C@@H](OC)C(=O)[C@H](C)C[C@H](C)/C=C/C=C/C=C/1C [Everolimus] + Cc1nc(Nc2ncc(C(=O)Nc3c(C)cccc3Cl)s2)cc(N2CCN(CCO)CC2)n1 [Dasatinib] (partner 0.075 µM)
Summary of the method: (§1)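 Cells from lung cancer lines were seeded into 1536-well plates and, one day later, dosed by pin tool. Treatments were either a single drug or a fixed dose of an anchor drug with five library-drug doses (not always all listed) in √10 steps. After 5 days, nuclei were stained in a one-step fixation (final 0.05% Triton X-100, 1% formaldehyde, 1 ug/ml Hoechst) and counted on 4× images, and relative viability is the treated-to-vehicle nuclei ratio, as the median of duplicate plates.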

Everolimus + Vorinostat = compound: CO[C@H]1C[C@@H]2CC[C@@H](C)[C@@](O)(O2)C(=O)C(=O)N2CCCC[C@H]2C(=O)O[C@H]([C@H](C)C[C@@H]2CC[C@@H](OCCO)[C@H](OC)C2)CC(=O)[C@H](C)/C=C(\C)[C@@H](O)[C@@H](OC)C(=O)[C@H](C)C[C@H](C)/C=C/C=C/C=C/1C [Everolimus] + O=C(CCCCCCC(=O)Nc1ccccc1)NO [Vorinostat] (partner 1 µM)
Summary of the method: as §1

Everolimus + Pictilisib = compound: CO[C@H]1C[C@@H]2CC[C@@H](C)[C@@](O)(O2)C(=O)C(=O)N2CCCC[C@H]2C(=O)O[C@H]([C@H](C)C[C@@H]2CC[C@@H](OCCO)[C@H](OC)C2)CC(=O)[C@H](C)/C=C(\C)[C@@H](O)[C@@H](OC)C(=O)[C@H](C)C[C@H](C)/C=C/C=C/C=C/1C [Everolimus] + CS(=O)(=O)N1CCN(Cc2cc3nc(-c4cccc5[nH]ncc45)nc(N4CCOCC4)c3s2)CC1 [Pictilisib] (partner 1 µM)
Summary of the method: as §1

Everolimus + Crizotinib = compound: CO[C@H]1C[C@@H]2CC[C@@H](C)[C@@](O)(O2)C(=O)C(=O)N2CCCC[C@H]2C(=O)O[C@H]([C@H](C)C[C@@H]2CC[C@@H](OCCO)[C@H](OC)C2)CC(=O)[C@H](C)/C=C(\C)[C@@H](O)[C@@H](OC)C(=O)[C@H](C)C[C@H](C)/C=C/C=C/C=C/1C [Everolimus] + C[C@@H](Oc1cc(-c2cnn(C3CCNCC3)c2)cnc1N)c1c(Cl)ccc(F)c1Cl [Crizotinib] (partner 1 µM)
Summary of the method: as §1

| Cell Line | relative viability (Everolimus + Dasatinib; first compound 0.01 µM) | relative viability (Everolimus + Dasatinib; first compound 0.03162 µM) | relative viability (Everolimus + Dasatinib; first compound 0.1 µM) | relative viability (Everolimus + Dasatinib; first compound 0.3162 µM) | relative viability (Everolimus + Dasatinib; first compound 1 µM) | relative viability (Everolimus + Vorinostat; first compound 0.01 µM) | relative viability (Everolimus + Vorinostat; first compound 0.03162 µM) | relative viability (Everolimus + Vorinostat; first compound 0.1 µM) | relative viability (Everolimus + Vorinostat; first compound 0.3162 µM) | relative viability (Everolimus + Vorinostat; first compound 1 µM) | relative viability (Everolimus + Pictilisib; first compound 0.01 µM) | relative viability (Everolimus + Pictilisib; first compound 0.03162 µM) | relative viability (Everolimus + Pictilisib; first compound 0.1 µM) | relative viability (Everolimus + Pictilisib; first compound 0.3162 µM) | relative viability (Everolimus + Pictilisib; first compound 1 µM) | relative viability (Everolimus + Crizotinib; first compound 0.01 µM) | relative viability (Everolimus + Crizotinib; first compound 0.03162 µM) | relative viability (Everolimus + Crizotinib; first compound 0.1 µM) | relative viability (Everolimus + Crizotinib; first compound 0.3162 µM) | relative viability (Everolimus + Crizotinib; first compound 1 µM) |
| --- | --- | --- | --- | --- | --- | --- | --- | --- | --- | --- | --- | --- | --- | --- | --- | --- | --- | --- | --- | --- |
| 201T | 0.592 | 0.595 | 0.521 | 0.547 | 0.519 | 0.844 | 0.908 | 0.81 | 0.806 | 0.809 | 0.59 | 0.604 | 0.528 | 0.568 | 0.645 | 0.945 | 0.984 | 0.926 | 0.962 | 0.977 |
| A549 | – | – | – | – | – | – | – | – | – | – | 0.16 | 0.178 | 0.166 | 0.182 | 0.192 | 0.416 | 0.415 | 0.306 | 0.401 | 0.369 |
| A-427 | 0.527 | 0.526 | 0.397 | 0.462 | 0.489 | 0.781 | 0.817 | 0.751 | 0.829 | 0.843 | 0.488 | 0.524 | 0.445 | 0.491 | 0.542 | 0.776 | 0.768 | 0.745 | 0.704 | 0.675 |
| ABC-1 | – | 0.393 | 0.413 | 0.455 | 0.513 | 0.56 | – | 0.741 | – | 0.941 | 0.389 | 0.371 | 0.413 | 0.542 | 0.557 | 0.74 | 0.799 | 0.709 | 0.584 | 0.761 |
| BEN | 0.221 | 0.209 | 0.217 | 0.236 | 0.211 | 0.401 | 0.337 | 0.368 | 0.353 | 0.391 | 0.312 | 0.281 | 0.254 | 0.295 | 0.336 | 0.573 | 0.391 | 0.311 | 0.387 | 0.328 |
| CAL-12T | 0.274 | 0.261 | 0.194 | 0.289 | 0.189 | 0.267 | 0.29 | 0.237 | 0.321 | 0.318 | 0.324 | 0.26 | 0.377 | 0.287 | 0.304 | 0.432 | 0.569 | 0.233 | 0.401 | 0.265 |
| COR-L23 | 0.429 | 0.498 | 0.432 | 0.497 | 0.485 | 0.322 | 0.336 | 0.308 | 0.381 | 0.367 | 0.354 | 0.409 | 0.378 | 0.366 | 0.483 | 0.515 | 0.597 | 0.623 | 0.666 | 0.635 |
| COR-L 105 | 0.25 | 0.262 | 0.211 | 0.253 | 0.233 | 0.58 | 0.465 | 0.535 | 0.572 | 0.59 | 0.331 | 0.376 | 0.295 | 0.368 | 0.313 | 0.549 | 0.642 | 0.469 | 0.544 | 0.49 |
| Calu-6 | – | – | – | – | – | – | – | – | – | – | 0.573 | 0.566 | 0.559 | 0.527 | 0.592 | 0.808 | 0.692 | 0.642 | 0.674 | 0.748 |
| ChaGo-K-1 | 0.523 | 0.565 | 0.532 | 0.521 | 0.61 | 0.678 | 0.688 | 0.62 | 0.662 | 0.726 | 0.653 | 0.382 | 0.634 | 0.494 | 0.666 | 1.04 | 1.2 | 1.07 | 1.02 | 1.14 |
| EBC-1 | – | – | – | – | – | – | – | – | – | – | 0.199 | 0.193 | 0.221 | 0.227 | 0.222 | 0.188 | 0.17 | 0.152 | 0.206 | 0.185 |
| EKVX | 0.539 | 0.435 | 0.419 | 0.366 | 0.287 | 0.72 | 0.567 | 0.429 | 0.451 | 0.425 | 0.251 | 0.24 | 0.234 | 0.245 | 0.22 | 0.718 | 0.656 | 0.684 | 0.721 | 0.75 |
| EMC-BAC-2 | 0.24 | 0.242 | 0.189 | 0.219 | 0.278 | 0.278 | 0.267 | 0.299 | – | 0.292 | 0.368 | 0.349 | 0.298 | 0.42 | 0.39 | 0.562 | 0.546 | 0.485 | 0.504 | 0.535 |
| EPLC-272H | 0.235 | 0.266 | 0.213 | 0.227 | 0.276 | 0.512 | 0.306 | 0.289 | 0.336 | 0.305 | 0.274 | 0.295 | 0.188 | 0.211 | 0.262 | 0.68 | 0.573 | 0.542 | 0.512 | 0.601 |
| H3255 | 0.35 | 0.266 | 0.332 | 0.239 | 0.335 | 0.474 | 0.82 | 0.47 | 0.446 | 0.549 | 0.35 | 0.332 | 0.302 | 0.294 | 0.281 | 0.575 | 0.505 | 0.498 | 0.555 | 0.527 |
| HARA | 0.199 | 0.244 | – | 0.209 | 0.289 | 0.431 | 0.494 | 0.407 | 0.371 | 0.485 | 0.236 | 0.278 | 0.227 | 0.228 | 0.238 | 1 | 1.12 | 0.928 | 0.986 | 0.952 |
